The target in assay [1] is gamma-secretase. Further details: method as in PMID 22505028, PMID 19542625. Particulars: weak modulator; cited from earlier work.
The test system of assay [2] is gamma-secretase. Nature of the assay: Six-day once-a-day oral dosing PK/PD in Tg2576 mice (brain, plasma, CSF Aβ). In kind it is in vivo. Particulars: positive control, orally once on day six, 6 hrs post dose.
Method: Female transgenic mice (Tg2576, 3 months of age; n = 20), wild-type male CD-1 mice (six weeks of age; n = 8 to 12) or wild-type male Sprague Dawley rats (200 to 225 g body weight; n = 12) were utilized to assess in vivo efficacy.
In the transgenic studies, compound was dosed in 10:20:70 ethanol/solutol/water via oral gavage. […] The mice were subjected to cisterna magna puncture and collection of cerebrospinal fluid (CSF) (approximately 5 μl per mouse). Individual CSF samples were flash-frozen on dry ice and stored at -80°C. Thereafter, the mice were subjected to cardiac puncture and blood samples were collected into K2EDTA tubes and stored on wet ice until processed to plasma by centrifugation (2,000 g at 4°C for 10 minutes) within 30 minutes of collection. The plasma was aliquoted for both Aβ measurements and parent drug using LC/MS/MS. Both sets of tubes were frozen at -80°C. The brains were perfused with non-heparinized saline (the blood flushed away) and removed carefully. Brains were rinsed with ice cold PBS (without Mg^2+ or Ca^2+), blotted dry, dissected on ice into three pieces (left and right hemisphere and cerebellum). Samples were frozen in liquid nitrogen immediately prior to storage at -80°C. Cerebella were analyzed for parent drug via LC/MS/MS. Parent drug levels were compared to a standard curve to establish the plasma, brain and CSF levels. […]
The test system of assay [3] is gamma-secretase. The assay is described as follows: Aβ peptides in conditioned media of CHO-2B7 cells (MSD 3-Plex). In kind it is cell-based, Chinese hamster. Particulars: for IC50: 5 hrs treatment, conditioned media. On the procedure: CHO-2B7 cells (Mayo Clinic) are Chinese hamster ovary cells stably transfected with human βAPP 695wt. The cells were cultured in Ham's F12 media (Thermo Fisher SH30026.01, Waltham, MA, USA) supplemented with 10% FBS, 0.25 mg/mL Zeocin and 90 ug/mL penicillin/streptomycin at 37°C in a 5% CO2 atmosphere. For compound treatment, cells were plated in 96-well plates at a density of 1.0 × 10^5 cells/mL and allowed grow to 100% confluence over two days. Test compounds in dimethyl sulfoxide (DMSO) were diluted 100-fold directly into the media before being adding to the cells. Immediately prior to adding compound-containing media to the cells, the cells were washed once with 1X PBS. Conditioned media from CHO-2B7 cells were collected after 5 hrs of treatment and the levels of Aβ peptides were assessed as described below.
Conditioned media were collected after 5 hrs of treatment and diluted with one volume of MSD blocking buffer (1% BSA in MSD wash buffer). MSD Human (6E10) Aβ 3-Plex plates, which are pre-spotted with three separate spots in each well containing capture antibodies against the unique C-terminal ends of Aβ38, Aβ40 and Aβ42, respectively, were blocked with MSD blocking buffer for one hour. Samples were transferred to the blocked plates with 6E10 detection antibody and incubated for 2 hrs at room temperature with orbital shaking followed by washing and reading according to the manufacturer's instructions (SECTOR® Imager 2400 Meso Scale Discovery, Gaithersburg MD, USA).

We go through three compounds from publication PMC3707052 (Alzheimer's Research & Therapy, 2013).

Each structure is given as a SMILES string. Where two headings read alike, the source gives them in different places.

A word on the IC50: it is the concentration at which inhibition is half-maximal. For `C[C@@H](C(=O)O)c1ccc(-c2ccccc2)c(F)c1` [Flurizan], the IC50 in assay [1] was 250 µM.
For `CC(C)CC[C@H](c1ccc(Cl)cc1)N1CC[C@@H](CC(=O)O)C[C@H]1c1ccc(C(F)(F)F)cc1` [Merck GSM-1], in assay [2], the “effect on Aβ38 levels” value is reported as “increased Aβ38 levels” and the “effect on Aβ42 levels” value is “significantly reduced Aβ42”.
Consider `CCO[C@@H]([C@H]1C[C@@H](C)[C@H]2[C@@H](O1)[C@H](O)[C@@]1(C)[C@@H]3CC[C@H]4C(C)(C)[C@@H](O[C@H]5CN(C6CN(C(C)C)C6)CCO5)CC[C@@]45C[C@@]35CC[C@]21C)C(C)(C)O` [SPI-1865], for which the “Total Aβ” value in assay [3] (CHO-2B7 cells) is “only decreased at doses where cytotoxicity was observed”. For the same compound, the IC50 in assay [3] (CHO-2B7 cells, read-out: IC50 Aβ38) came out at 0.259 µM; in assay [3] (CHO-2B7 cells, read-out: IC50 Aβ40) it was 2.8 µM; in assay [3] (CHO-2B7 cells, read-out: IC50 Aβ42) it was 0.106 µM. The “IC25 Aβ42” value in assay [3] (in vitro) came to 0.033 ± 0.018 µM.
